Laboratory results: patent US8163796B1, “Treatment of cancer by oxidation-reduction potentiation of cancerostatic dicarbonyls” (BioChemical Solutions, LLC, priority 2009, dated 2012)

Tests used:
[1] = (IV) administration at 3.0 grams/m^2; cited from earlier work
[2] = test system: murine B cell lymphoma cell line (A20;ATCC#TIB-208); experiment: Tritiated thymidine incorporation (growth rate) of cultured lymphoma cells; type: cell-based; details: for Mean, cpm (tritiated thymidine count, growth rate): 12 hours, triplicates
Description: The effect of methylglyoxal concentration on the growth rate of cultured lymphoma cells is shown below. The cells used were murine B cell lymphoma cell line (A20;ATCC#TIB-208). Cells labeled A20 were untreated cells that were passed through their regular media. A20 Methylglyoxal Reversed cells had undergone 3 passages in media containing 1 mM methylglyoxal followed by 3 passages in regular media before use. A20 Methylglyoxal P6 cells had 6 passages in media containing 1 mM methylglyoxal before use. At the start of the experiment harvested cells were incubated with DNA precursor tritiated thymidine in media containing the various concentrations of methylglyoxal for 12 hours, then harvested and counted in a scintillation counter. The count data in cpm reflect the growth rate of the cells in the presence of the various methylglyoxal concentrations. Relevant data from this in vitro study are presented here.

cancer cells = details: cited from earlier work
[3] = mice, single oral dose of 200 mg; cited from earlier work
[4] = oral administration; cited from earlier work

CCCCS(=N)(=O)CCC(N)C(=O)O (stereo not drawn) [buthioinine sulfoximine, buthionine sulfoximine]
Deleterious effects [1]: no deleterious effects

CC(=O)C=O [Methylglyoxal, methylglyoxal]
Survival of lymphoma cells on passage in methylglyoxal ([2]; 1 mM methylglyoxal in media, 3 or 6 passages): able to survive
Effect on growth rate ([2]; 1.2 mM methylglyoxal, all three A20 cell groups): severely slowed their growth rate
Growth rate relative to the controls ([2]; 2.5 mM and 5.0 mM methylglyoxal, all three A20 cell groups): less than 0.1 % of the controls
Mean, cpm (tritiated thymidine count, growth rate) ([2]; A20 1 mM Methylglyoxal P6 cells, 0.3 mM methylglyoxal): 36,001 cpm
Mean, cpm (tritiated thymidine count, growth rate) ([2]; A20 1 mM Methylglyoxal P6 cells, 0.6 mM methylglyoxal): 35,157 cpm
Mean, cpm (tritiated thymidine count, growth rate) ([2]; A20 1 mM Methylglyoxal P6 cells, 1.2 mM methylglyoxal): 1,470 cpm
Mean, cpm (tritiated thymidine count, growth rate) ([2]; A20 1 mM Methylglyoxal P6 cells, 2.5 mM methylglyoxal): 24 cpm
Mean, cpm (tritiated thymidine count, growth rate) ([2]; A20 1 mM Methylglyoxal P6 cells, 5.0 mM methylglyoxal): 9 cpm
Mean, cpm (tritiated thymidine count, growth rate) ([2]; A20 1 mM Methylglyoxal Reversed P3 cells, 0.3 mM methylglyoxal): 34,220 cpm
Mean, cpm (tritiated thymidine count, growth rate) ([2]; A20 1 mM Methylglyoxal Reversed P3 cells, 0.6 mM methylglyoxal): 33,927 cpm
Mean, cpm (tritiated thymidine count, growth rate) ([2]; A20 1 mM Methylglyoxal Reversed P3 cells, 1.2 mM methylglyoxal): 587 cpm
Mean, cpm (tritiated thymidine count, growth rate) ([2]; A20 1 mM Methylglyoxal Reversed P3 cells, 2.5 mM methylglyoxal): 7 cpm
Mean, cpm (tritiated thymidine count, growth rate) ([2]; A20 1 mM Methylglyoxal Reversed P3 cells, 5.0 mM methylglyoxal): 12 cpm
Development of resistance to methylglyoxal ([2]; A20 Methylglyoxal Reversal and A20 Methylglyoxal P6 cells, passaged in 1 mM methylglyoxal): no evidence
Mean, cpm (tritiated thymidine count, growth rate) ([2]; A20 untreated cells, 0.3 mM methylglyoxal): 36,289 cpm
Mean, cpm (tritiated thymidine count, growth rate) ([2]; A20 untreated cells, 0.6 mM methylglyoxal): 30,119 cpm
Mean, cpm (tritiated thymidine count, growth rate) ([2]; A20 untreated cells, 1.2 mM methylglyoxal): 275 cpm
Mean, cpm (tritiated thymidine count, growth rate) ([2]; A20 untreated cells, 2.5 mM methylglyoxal): 6 cpm
Mean, cpm (tritiated thymidine count, growth rate) ([2]; A20 untreated cells, 5.0 mM methylglyoxal): 8 cpm
Levels causing protein synthesis inhibition, arrested cell growth and induced apoptosis (cancer cells; cancer cells, normal cells were not affected): 1 to 3 mM
Concentration required to achieve 95-100% cell death (cancer cells; cultured cancer cells or mice inoculated intraperitoneally with cancer cells): ~3 mM
Time of peak blood concentration [3]: 4 h
Oral uptake [4]: less than 5%
